Holding throughout (type): cell-based
In test [1] the test system is SKOV-3 (human ovarian). As to the kind of experiment: SRB assay, in vitro antitumor effect against SKOV-3. The settings on record: Homo sapiens; SK-OV-3, 48 hours; read-out: ED50 (the source's name). The protocol:
(§1) In vitro antitumor effect against human tumor cell lines.
(§2) b. 5×10^3 ~2×10^4 cells were added into each well of 96-well plate and cultured in 5% CO2 incubator, at 37° C., for 24 hours.
(§3) c. Each sample drug was dissolved in a little DMSO and diluted with the used medium to a prescribed concentration for experiments, wherein the final concentration of DMSO was controlled below 0.5%.
(§4) d. Medium of each well cultured for 24 hours as above b. was removed by aspiration. Each 200 μl of drug samples prepared in c. was added into each well and the wells were cultured for 48 hours. Tz(time zero) plates were collected at the point of time drugs were added.
(§5) e. According to the SRB assay method, cell fixing with TCA, staining with 0.4% SRB solution, washing with 1% acetic acid and elution of dye with 10 mM Tris solution were carried out on Tz plates and culture-ended plates, and then, OD values were measured at 520 nm.
(§6) a. Time zero(Tz) value was determined with measuring the SRB protein value at the point of time drugs were added.
(§7) b. Control value(C) was determined with the OD value of an well untreated with drug.
(§8) c. Drug-treated test value(T) was determined with the OD value of drug-treated well.
(§9) d. Effects of drugs were estimated with growth stimulation, net growth inhibition, net killing etc. calculated from Tz, C and T.
(§10) e. If T≥Tz, cellular response function was calculated by 100×(T-Tz)/(C-Tz), and if T<Tz, by 100×(T-Tz)/Tz.
On the technique in general: In SRB staining, fixed cells bind dye roughly in proportion to their protein.

Test [2] deals with XF 498 (human CNS). Put plainly: SRB assay, in vitro antitumor effect against XF 498. As to conditions: Homo sapiens, XF498; XF-498, 48 hours; read-out: ED50 (the source's name). The procedure:
as §1, §2, §3, §4, §5, §6, §7, §8, §9, §10

Test [3] has as its system A549 (human non-small lung cell). As to the kind of experiment: SRB assay, in vitro antitumor effect against A549. As to conditions: Homo sapiens; A549, 48 hours; read-out: ED50 (the source's name). The protocol: as §1, §2, §3, §4, §5, §6, §7, §8, §9, §10
Test [4] deals with SKMEL-2 (human melanoma). Put plainly: SRB assay, in vitro antitumor effect against SKMEL-2. The settings on record: Homo sapiens; SK-MEL-2, 48 hours; read-out: ED50 (the source's name). The protocol:
as §1, §2, §3, §4, §5, §6, §7, §8, §9, §10

Test [5] concerns HCT-15 (human colon). Put plainly: SRB assay, in vitro antitumor effect against HCT-15. As to conditions: Homo sapiens; HCT 15, 48 hours; read-out: ED50 (the source's name). The protocol: as §1, §2, §3, §4, §5, §6, §7, §8, §9, §10

In brackets after ≈: the same amount, converted by molar mass.

Turning to `COc1nc2ccccc2cc1N(C)C(=O)N1CCN(c2cc(C)cc(C)c2)CC1` [Example 103, 1-[N-(2-Methoxyquinolin-3-yl)-N-methylaminocarbonyl]-4-(3,5-dimethylphenyl)piperazine], the IC50 in test [1] is 0.46 mg/L (≈ 1.14 µM); in test [2], 0.36 mg/L (≈ 0.89 µM); in test [3], 0.52 mg/L (≈ 1.29 µM); in test [4], 0.49 mg/L (≈ 1.21 µM); in test [5], 0.33 mg/L (≈ 0.816 µM).

For the compound `COc1cc(OC)cc(N2CCN(C(=S)Nc3cc(C(C)O)c(C)nc3OC)CC2)c1` (stereo not drawn) [Example 63, 1-{[5-(1-Hydroxyethyl)-2-methoxy-6-methylpyridin-3-yl]aminothiocarbonyl}-4-(3,5-dimethoxyphenyl)piperazine], the IC50 in test [1] came to 0.1 mg/L (≈ 0.224 µM); in test [2] it was 0.03 mg/L (≈ 0.0672 µM); in test [3], 0.04 mg/L (≈ 0.0896 µM); in test [4] it was 0.11 mg/L (≈ 0.246 µM); in test [5], 0.07 mg/L (≈ 0.157 µM).

Regarding `COc1nc(C)c(C)cc1NC(=S)N1CCN(c2cc(F)cc(F)c2)CC1` [Example 23, 1-[(5,6-Dimethyl-2-methoxypyridin-3-yl)aminothiocarbonyl]-4-(3,5-difluorophenyl)piperazine], the IC50 in test [1] was 0.04 mg/L (≈ 0.102 µM); in test [2] it was 0.092 mg/L (≈ 0.234 µM); in test [3] it was 0.09 mg/L (≈ 0.229 µM); in test [4], 0.09 mg/L (≈ 0.229 µM); in test [5], 0.05 mg/L (≈ 0.127 µM).

Regarding `COc1cc(OC)cc(N2CCN(C(=O)N(c3cc4ccccc4nc3OC)C(C)C)CC2)c1` [Example 100], the IC50 in test [1] stood at 3.02 mg/L (≈ 6.5 µM); in test [2], 0.66 mg/L (≈ 1.42 µM); in test [3] it was 4.54 mg/L (≈ 9.77 µM); in test [4], 3.47 mg/L (≈ 7.47 µM); in test [5], 4.21 mg/L (≈ 9.06 µM).

Take `COc1cc(OC)cc(N2CCN(C(=O)Nc3cc(C(C)=O)c(C)nc3OC)CC2)c1` [Example 46, 1-[(5-Acetyl-2-methoxy-6-methylpyridin-3-yl)amninocarbonyl]-4-(3,5-dimethoxyphenyl)piperazine]: the IC50 in test [1] was 0.12 mg/L (≈ 0.28 µM); in test [2], 0.14 mg/L (≈ 0.327 µM); in test [3] it was 0.21 mg/L (≈ 0.49 µM); in test [4], 0.08 mg/L (≈ 0.187 µM); in test [5], 0.16 mg/L (≈ 0.373 µM).

For the compound `COc1cc(OC)cc(N2CCN(C(=O)N(C)c3cc(C)c(C)nc3OC)CC2)c1` [Example 132, 1-[N-(5,6-Dimethyl-2-methoxypyridin-3-yl)-N-methylaminocarbonyl]-4-(3,5-dimethoxyphenyl)piperazine], the IC50 in test [1] was found to be 0.01 mg/L (≈ 0.0241 µM); in test [2], 0.04 mg/L (≈ 0.0965 µM); in test [3], 0.03 mg/L (≈ 0.0724 µM); in test [4] it was 0.03 mg/L (≈ 0.0724 µM); in test [5], 0.04 mg/L (≈ 0.0965 µM).

As to `COc1nc2ccccc2cc1NC(=S)N1CCN(c2cc(C)cc(C)c2)CC1` [Example 110, 1[(2-Methoxyquinolin-3-yl)aminothiocarbonyl]-4-(3,5-dimethylphenyl)piperazine], the IC50 was found to be 1.06 mg/L (≈ 2.61 µM) in test [1]; 0.81 mg/L (≈ 1.99 µM) in test [2]; 0.52 mg/L (≈ 1.28 µM) in test [3]; 0.97 mg/L (≈ 2.39 µM) in test [4]; 0.69 mg/L (≈ 1.7 µM) in test [5].

On to `CCN(C(=O)N1CCN(c2cc(OC)cc(OC)c2)CC1)c1cc2ccccc2nc1OC` [Example 99, 1-[N-Ethyl-N-(2-methoxyquinolin-3-yl)aminocarbonyl]-4-(3,5-dimethoxyphenyl)piperazine], for which the IC50 is 0.41 mg/L (≈ 0.91 µM) in test [1]; 0.52 mg/L (≈ 1.15 µM) in test [2]; 0.43 mg/L (≈ 0.954 µM) in test [3]; 0.4 mg/L (≈ 0.888 µM) in test [4]; 0.36 mg/L (≈ 0.799 µM) in test [5].

`COc1cc(OC)cc(N2CCN(C(=O)N(C)c3cc(C(C)O)c(C)nc3OC)CC2)c1` (stereo not drawn) [Example 152, 1-{N-[5-(1-Hydroxyethyl)-2-methoxy-6-methylpyridin-3-yl]-N-methylaminocarbonyl}-4-(3,5-dimethoxyphenyl)piperazine]: the IC50 in test [1] was determined as 0.37 mg/L (≈ 0.832 µM); in test [2], 0.26 mg/L (≈ 0.585 µM); in test [3], 0.18 mg/L (≈ 0.405 µM); in test [4], 0.2 mg/L (≈ 0.45 µM); in test [5], 0.44 mg/L (≈ 0.99 µM).

The record behind these values is patent US6028195A, “Piperazine derivatives and process for the preparation thereof” (Samjin Pharmaceutical Co., Ltd., priority 1996, dated 2000).
